# Assay results taken from US12495798B2, “Nicotinamide compound and herbicidal composition comprising compound” (KOREA RESEARCH INSTITUTE OF CHEMICAL TECHNOLOGY, priority 2019, dated 2025).
# What was measured:
# Assay type in all cases: in vivo
# wheat = assay: Phytotoxicity test for upland field crops (foliar treatment test); parameters: key: 0 (no harm); 9 (complete withered)
# Summary of the method: (§1)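 Post-emergence spray at 19–300 g a.i./ha (acetone/Tween-20 diluent, 100 ml/m²) onto greenhouse-grown plants. Damage rated 7 and 14 (optionally 21) days later on a 0–9 scale relative to untreated plants.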
# corn = assay: as above; parameters: key: 0 (no harm); 9 (complete withered)
# Summary of the method: as §1
# rice = assay: as above; parameters: key: 0 (no harm); 9 (complete withered)
# Summary of the method: as §1
# cotton = assay: as above; parameters: key: 0 (no harm); 9 (complete withered)
# Summary of the method: as §1
# soybean = assay: as above; parameters: key: 0 (no harm); 9 (complete withered)
# Summary of the method: as §1
# sorghum = assay: Herbicidal activity test against upland field weeds (soil treatment test); conditions: 50 g ai/ha, scale 0 (no control) to 100 (complete control); for plant injury at 50 g/ha: Sorghum
# Summary of the method: (§2)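 Weed control scored visually on a 0 (none) to 100 (complete) scale versus untreated pots at 14 or 21 days in greenhouse (30±5 °C, 14 h light). Test compounds, 50 or 75 g a.i./ha in 50% acetone/0.1% Tween-20, hand-sprayed onto soil one day post-sowing.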
# cocklebur = assay: Herbicidal activity test against upland field weeds (foliar treatment test); parameters: key to Foliar treatment herbicidal activity, Cocklebur: 0 (no control); 100 (complete control); conditions: 50 g ai/ha, scale 0-100; for pest or weed control at 50 g/ha: Xanthium strumarium
# Summary of the method: (§3)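 Visual 0–100 control ratings relative to untreated plants, taken 14 (or 21) days after spraying foliage at 50 or 75 g a.i./ha. Spray solution: 50% acetone with 0.1% Tween-20; plants kept in greenhouse at 30±5 °C, 14 h light/10 h dark.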
# indian jointvetch [1] = assay: Herbicidal activity test against upland field weeds (soil treatment test); parameters: key to Soil treatment herbicidal activity, Indian jointvetch: 0 (no control); 100 (complete control); conditions: 50 g ai/ha, scale 0 (no control) to 100 (complete control)
# Summary of the method: as §2
# indian jointvetch [2] = assay: Herbicidal activity test against upland field weeds (foliar treatment test); parameters: key to Foliar treatment herbicidal activity, Indian jointvetch: 0 (no control); 100 (complete control); conditions: 50 g ai/ha, scale 0-100
# Summary of the method: as §3
# bindweed [3] = assay: Herbicidal activity test against upland field weeds (soil treatment test); parameters: key to Soil treatment herbicidal activity, Bindweed: 0 (no control); 100 (complete control); conditions: 50 g ai/ha, scale 0 (no control) to 100 (complete control)
# Summary of the method: as §2
# bindweed [4] = assay: Herbicidal activity test against upland field weeds (foliar treatment test); parameters: key to Foliar treatment herbicidal activity, Bindweed: 0 (no control); 100 (complete control); conditions: 50 g ai/ha, scale 0-100
# Summary of the method: as §3
# quack grass = assay: Herbicidal activity test against upland field weeds (soil treatment test); parameters: key to Soil treatment herbicidal activity, quack grass: 0 (no control); 100 (complete control); conditions: 50 g ai/ha, scale 0 (no control) to 100 (complete control)
# Summary of the method: as §2
# velvetleaf = assay: as above; parameters: key to Soil treatment herbicidal activity, velvet leaf: 0 (no control); 100 (complete control); conditions: 50 g ai/ha, scale 0 (no control) to 100 (complete control)
# Summary of the method: as §2
# barnyard grass = assay: Herbicidal activity test against upland field weeds (foliar treatment test); conditions: 50 g ai/ha, scale 0-100; for pest or weed control at 50 g/ha: Echinochloa crus-galli
# Summary of the method: as §3
# [5] = 50 g ai/ha, Wheat (7 days after treatment)
# [6] = 50 g ai/ha, Wheat (14 days after treatment)
# [7] = 100 g ai/ha, Wheat (7 days after treatment)
# [8] = 100 g ai/ha, Wheat (14 days after treatment)
# [9] = 50 g ai/ha, Corn (7 days after treatment)
# [10] = 50 g ai/ha, Corn (14 days after treatment)
# [11] = 100 g ai/ha, Corn (7 days after treatment)
# [12] = 100 g ai/ha, Corn (14 days after treatment)
# [13] = 50 g ai/ha, Rice (7 days after treatment)
# [14] = 50 g ai/ha, Rice (14 days after treatment)
# [15] = 100 g ai/ha, Rice (7 days after treatment)
# [16] = 100 g ai/ha, Rice (14 days after treatment)
# [17] = 50 g ai/ha, Cotton (7 days after treatment)
# [18] = 50 g ai/ha, Cotton (14 days after treatment)
# [19] = 100 g ai/ha, Cotton (7 days after treatment)
# [20] = 100 g ai/ha, Cotton (14 days after treatment)
# [21] = 50 g ai/ha, Soybean (7 days after treatment)
# [22] = 50 g ai/ha, Soybean (14 days after treatment)
# [23] = 100 g ai/ha, Soybean (7 days after treatment)
# [24] = 100 g ai/ha, Soybean (14 days after treatment)
Structure (SMILES),"Foliar treatment phytotoxicity, Wheat (wheat; [5])","Foliar treatment phytotoxicity, Wheat (wheat; [6])","Foliar treatment phytotoxicity, Wheat (wheat; [7])","Foliar treatment phytotoxicity, Wheat (wheat; [8])","Foliar treatment phytotoxicity, Corn (corn; [9])","Foliar treatment phytotoxicity, Corn (corn; [10])","Foliar treatment phytotoxicity, Corn (corn; [11])","Foliar treatment phytotoxicity, Corn (corn; [12])","Foliar treatment phytotoxicity, Rice (rice; [13])","Foliar treatment phytotoxicity, Rice (rice; [14])","Foliar treatment phytotoxicity, Rice (rice; [15])","Foliar treatment phytotoxicity, Rice (rice; [16])","Foliar treatment phytotoxicity, Cotton (cotton; [17])","Foliar treatment phytotoxicity, Cotton (cotton; [18])","Foliar treatment phytotoxicity, Cotton (cotton; [19])","Foliar treatment phytotoxicity, Cotton (cotton; [20])","Foliar treatment phytotoxicity, Soybean (soybean; [21])","Foliar treatment phytotoxicity, Soybean (soybean; [22])","Foliar treatment phytotoxicity, Soybean (soybean; [23])","Foliar treatment phytotoxicity, Soybean (soybean; [24])",also measured
"Cn1nnc(COCc2nc(C(F)(F)Cl)ccc2C(=O)Nc2nnnn2C)n1 [Compound No. 2-78, 6-(chlorodifluoromethyl)-N-(1-methyl-1H-tetrazol-5-yl)-2-(((2-methyl-2H-tetrazol-5-yl)methoxy)methyl)nicotinamide]",0,0,0,0,2,1,3,1,5,4,6,5,5,9,6,9,5,5,6,6,"plant injury at 50 g/ha (sorghum): 50%; pest or weed control at 50 g/ha (cocklebur): 60%; pest or weed control at 50 g/ha (indian jointvetch [1]): 95%; pest or weed control at 50 g/ha (indian jointvetch [2]): 80%; pest or weed control at 50 g/ha (bindweed [3]): 40%; pest or weed control at 50 g/ha (bindweed [4]): 40%; Soil treatment herbicidal activity, quack grass (quack grass): 0; Soil treatment herbicidal activity, velvet leaf (velvetleaf): 100; pest or weed control at 50 g/ha (barnyard grass): 70%"
"Cn1nnc(COCc2nc(C(F)(F)C(F)(F)F)ccc2C(=O)Nc2nnnn2C)n1 [Compound No. 2-81, N-(1-methyl-1H-tetrazol-5-yl)-2-(((2-methyl-2H-tetrazol-5-yl)methoxy)methyl)-6-(perfluoroethyl)nicotinamide]",0,0,0,0,2,1,2,1,5,3,6,5,4,9,4,9,5,6,6,7,"plant injury at 50 g/ha (sorghum): 50%; pest or weed control at 50 g/ha (cocklebur): 95%; Soil treatment herbicidal activity, Indian jointvetch (indian jointvetch [1]): 100; pest or weed control at 50 g/ha (indian jointvetch [2]): 80%; pest or weed control at 50 g/ha (bindweed [3]): 70%; pest or weed control at 50 g/ha (bindweed [4]): 60%; Soil treatment herbicidal activity, quack grass (quack grass): 0; Soil treatment herbicidal activity, velvet leaf (velvetleaf): 100; pest or weed control at 50 g/ha (barnyard grass): 80%"
"Cn1nnc(COCc2nc(C(F)F)ccc2C(=O)Nc2nnnn2C)n1 [Compound No. 2-84, 6-(difluoromethyl)-N-(1-methyl-1H-tetrazol-5-yl)-2-(((2-methyl-2H-tetrazol-5-yl)methoxy)methyl)nicotinamide]",0,0,0,0,2,1,3,4,6,7,6,9,5,9,5,9,6,7,6,8,"plant injury at 50 g/ha (sorghum): 20%; pest or weed control at 50 g/ha (cocklebur): 95%; pest or weed control at 50 g/ha (indian jointvetch [1]): 98%; pest or weed control at 50 g/ha (indian jointvetch [2]): 70%; pest or weed control at 50 g/ha (bindweed [3]): 40%; pest or weed control at 50 g/ha (bindweed [4]): 60%; Soil treatment herbicidal activity, quack grass (quack grass): 0; Soil treatment herbicidal activity, velvet leaf (velvetleaf): 100; pest or weed control at 50 g/ha (barnyard grass): 95%"
"Cn1nnc(COCc2nc(C(F)(F)F)ccc2C(=S)Nc2nnnn2C)n1 [Compound No. 2-106, N-(1-methyl-1H-tetrazol-5-yl)-2-(((2-methyl-2H-tetrazol-5-yl)methoxy)methyl)-6-(trifluoromethyl)pyridin-3-carbothioamide]",0,0,0,0,5,4,6,7,6,7,6,8,5,9,5,9,5,8,6,8,"plant injury at 50 g/ha (sorghum): 70%; pest or weed control at 50 g/ha (cocklebur): 95%; Soil treatment herbicidal activity, Indian jointvetch (indian jointvetch [1]): 100; pest or weed control at 50 g/ha (indian jointvetch [2]): 80%; pest or weed control at 50 g/ha (bindweed [3]): 98%; pest or weed control at 50 g/ha (bindweed [4]): 40%; Soil treatment herbicidal activity, quack grass (quack grass): 0; Soil treatment herbicidal activity, velvet leaf (velvetleaf): 100; pest or weed control at 50 g/ha (barnyard grass): 80%"
"CCOC(=O)OC(C)N(C(=O)c1ccc(C(F)(F)F)nc1COCc1nnn(C)n1)c1nnnn1C (stereo not shown) [Compound No. 4-8, ethyl(1-(N-(1-methyl-1H-tetrazol-5-yl)-2-(((2-methyl-2H-tetrazol-5-yl)methoxy)methyl)-6-(trifluoromethyl)nicotinamido)ethyl)carbonate]",2,1,2,2,0,0,0,0,0,0,0,0,0,0,0,0,0,0,0,0,"Soil treatment herbicidal activity, Sorghum (sorghum): 70; Foliar treatment herbicidal activity, Cocklebur (cocklebur): 100; Soil treatment herbicidal activity, Indian jointvetch (indian jointvetch [1]): 100; Foliar treatment herbicidal activity, Indian jointvetch (indian jointvetch [2]): 100; Soil treatment herbicidal activity, Bindweed (bindweed [3]): 0; Foliar treatment herbicidal activity, Bindweed (bindweed [4]): 100; Soil treatment herbicidal activity, quack grass (quack grass): 0; Soil treatment herbicidal activity, velvet leaf (velvetleaf): 100; Foliar treatment herbicidal activity, barnyard grass (barnyard grass): 98"
